The record followed here is article PMC9687900, “Design, Synthesis, Kinetic Analysis and Pharmacophore-Directed Discovery of 3-Ethylaniline Hybrid Imino-Thiazolidinone as Potential Inhibitor of Carbonic Anhydrase II: An Emerging Biological Target for Treatment of Cancer” (Biomolecules, 2022).

Data set [1] concerns the target carbonic anhydrase II (CA-II) (Bos taurus, UniProt P00921). Nature of the data set: Carbonic anhydrase assay (p-nitrophenyl acetate hydrolysis). The data set is classed as biochemical, bovine. As to conditions: for IC50: bovine enzyme, mean ± SEM. The method, then:
As mentioned previously, the inhibition of carbonic anhydrase was investigated with adjustments. The method relies on the fact that carbonic anhydrase hydrolyzes p-nitrophenyl acetate into yellow-colored p-nitrophenol, which is then quantified spectrophotometrically. Each well contained 120 µL of a 50 mM Tris-sulfate buffer (pH 7.6, containing 0.1 mM ZnCl2), 20 µL of an inhibitor, and 20 µL of bovine enzyme (50 U). The materials were properly mixed and incubated for 10 min at 25 degrees Celsius. The substrate p-nitrophenyl acetate was synthesized (6 mM stock using <5% acetonitrile in buffer and used fresh each time) and 40 µL was added per well to achieve a concentration of […] per well. The total volume of the reaction was 200 µL. […] Each concentration was assessed in three distinct tests. The IC50 values were calculated with GraphPad Prism 5.0 [38] and nonlinear regression (GraphPad, San Diego, CA USA). (2) Inhibition (%)=B−S/B×100
Here, B and S represent the absorbances of the blank and sample, respectively.

For another data set, the target named is carbonic anhydrase (Bos taurus, UniProt P00921). Nature of the data set: Kinetic analysis of carbonic anhydrase inhibition (Lineweaver–Burk plots). The data set is classed as biochemical, bovine. From the text:
Based on the IC50 values, the most efficacious carbonic anhydrase inhibitor, compound 6e, was designated for kinetic investigation. Lineweaver-–Burk plots and a second plot are depicted in (Figure 3A,B). At various concentrations of the inhibitor and substrate, Lineweaver–Burk plots (plot of 1/V vs. 1/[S]) were generated to determine the kind of inhibition. […] The EI dissociation constant was shown by the second plot (Figure 3B) of the slope vs. the concentration of 6e.
To investigate the kinetic properties of compound 6e, identical experiments to those described in previous study were performed. The compound 6e was selected based on its IC50 value at various concentrations (0.00, 0.78, 1.55, and 3.11 µM, respectively), whereas the substrate concentrations (p-nitrophenyl acetate) were varied from (2, 1, 0.5, 0.25 and 0.125 mM). Other experimental settings mirrored those mentioned in the section under “Carbonic anhydrase assay”. The maximum starting velocity was estimated using the first linear section of absorbance up to 10 min at 1 min intervals. To evaluate the kind of enzyme inhibition, Lineweaver–Burk plots depicting the inverse of velocities (1/V) vs. the inverse of substrate concentration (1/[S] mM^−1) were utilized. […] Version 11 of Microsoft Excel was used to create graphs.

Chain of carbonic anhydrase II (CA-II) (P00921 whole entry): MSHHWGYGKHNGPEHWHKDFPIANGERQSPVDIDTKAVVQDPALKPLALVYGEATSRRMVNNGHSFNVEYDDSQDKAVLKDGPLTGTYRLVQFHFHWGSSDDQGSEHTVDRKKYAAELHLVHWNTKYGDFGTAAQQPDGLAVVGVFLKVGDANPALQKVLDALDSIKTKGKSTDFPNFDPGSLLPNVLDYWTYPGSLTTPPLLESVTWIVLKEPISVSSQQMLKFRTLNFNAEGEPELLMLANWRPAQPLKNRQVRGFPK
Chain of carbonic anhydrase (P00921 whole entry): as above

The molecule `CCOC(=O)C=C1SC(=NC(=O)c2ccccc2C)N(c2cccc(CC)c2)C1=O` [Compound 6a] came in with a melting point of 235 to 237 °C. Also, inhibition in data set [1] was half-maximal at 1.66 ± 0.095 µM (IC50).

In turn, `CCOC(=O)/C=C1\S/C(=N\C(=O)c2ccc(F)cc2)N(c2cccc(CC)c2)C1=O` [Compound 6j] yielded a melting point of 235 to 237 °C. The same molecule had an IC50 in data set [1] of 4.45 ± 0.329 µM.

`CCOC(=O)/C=C1\S/C(=N\C(=O)c2ccccc2F)N(c2cccc(CC)c2)C1=O` [Compound 6h] showed a melting point of 235 to 237 °C. Besides, the IC50 in data set [1] was determined as 11 ± 1.28 µM.

Molecule `CCOC(=O)/C=C1\S/C(=N\C(=O)c2ccccc2Br)N(c2cccc(CC)c2)C1=O` [Compound 6c] gave a melting point of 235 to 237 °C. Further, in data set [1], the IC50 came to 60.1 ± 1.92 µM.

`CCOC(=O)/C=C1\S/C(=N\C(=O)c2cccc(C)c2)N(c2cccc(CC)c2)C1=O` [Compound 6e] had a melting point of 235 to 237 °C. The molecule also came in with an IC50 in data set [1] of 1.54 ± 0.016 µM. For the same molecule, the kind of inhibition result on carbonic anhydrase (Lineweaver–Burk plots) is recorded as “competitive mechanism”. For the same molecule, the Ki at carbonic anhydrase (from slope vs. concentration of 6e, substrate p-nitrophenyl acetate, read-out: Ki (EI dissociation constant)) is 2.2 µM.

Regarding `CCOC(=O)/C=C1\S/C(=N\C(=O)c2ccc(C)cc2)N(c2cccc(CC)c2)C1=O` [Compound 6d], the melting point lay within 235 to 237 °C. The same molecule registered a concentration for half-maximal inhibition (IC50) in data set [1] of 6.5 ± 0.854 µM.

The molecule `CCOC(=O)/C=C1\S/C(=N\C(=O)c2ccccc2Cl)N(c2cccc(CC)c2)C1=O` [Compound 6i] gave a melting point of 235 to 237 °C. Further, the midpoint of inhibition in data set [1], the IC50, lay at 5.03 ± 0.659 µM. The “activity reduced, fold, in comparison to the inhibitory value of derivative 6g” value in data set [1] (relative to 6g) is reported as “approximately 2.9 fold”.

For `CCOC(=O)/C=C1\S/C(=N\C(=O)c2ccc(Cl)cc2Cl)N(c2cccc(CC)c2)C1=O` [Compound 6b], the melting point was in the range of 235 to 237 °C. In data set [1], this molecule showed an IC50 of 67.5 ± 2.71 µM.

As for `CCOC(=O)/C=C1\S/C(=N\C(=O)c2ccccc2)N(c2cccc(CC)c2)C1=O` [Compound 6f], the melting point fell in the range of 235 to 237 °C. For the same molecule, 9.52 ± 1.08 µM corresponded to half-maximal inhibition in data set [1] (IC50).

As for `CCOC(=O)/C=C1\S/C(=N\C(=O)c2cccc(Cl)c2)N(c2cccc(CC)c2)C1=O` [Compound 6g], the melting point fell in the range of 235 to 237 °C. The same molecule gave an IC50 in data set [1] of 1.78 ± 0.095 µM.

For orientation: IC50 means the concentration at which inhibition is half-maximal. For orientation: melting point means the temperature of the solid-liquid transition. One may read the Ki as the dissociation constant of the complex between target and ligand, obtained from inhibition or displacement.
